Laboratory results from patent publication US10004711B2, “Methods and compositions comprising 10-hydroxy-2-decenoic acid” (DSM IP ASSETS B.V., priority 2014, dated 2018).

Assays:
[1] = tested on: Neurons from the brain's hippocampus; test: In vitro hypoxia cell death (ethidium homodimer); format: cell-based, rat; details: for Cell Death (% Control): hypoxia (<0.3% O2) 48 h
Protocol: Neurons from the brain's hippocampus were derived from E17 pups and incubated for 7 days. The neurons were then pre-treated with QBA for 48 hours and subsequently exposed to a hypoxia (<0.3% O2) for 48 hours. The cultures were stained with calcein AM, a marker of live cells, and with ethidium homodimer, a marker for dead cells. The fluorescence of each of these markers was then quantitated with a fluorimeter.

[2] = tested on: older rats; test: Open field test, older rats fed QBA; format: in vivo, rat; details: for Center Entries (#): rats 15 months old, thirty minutes
Protocol: The dose-response characteristics of 10-Hydroxy-2-decenoic acid's (QBA's) potential brain health benefits during aging were assessed for mood in older rats (18-20 months old).
In the open field test each rat was placed in a novel environment consisting of an arena measuring 100×100×40 cm. Rats were placed in the middle of the chamber and behavior in the open field was recorded for thirty minutes with a digital camera and measured by software. More time spent in the center of the area is an indication of a reduced anxiety-like state. Rats were tested at 15 months old (N=11-12 per group).

[3] = tested on: 19-20 month-old male rats; test: Elevated plus-maze, rats fed QBA alone or QBA+DHA; format: in vivo, rat; details: DHA 0.00
Protocol: Rats were fed QBA and subjected to an elevated plus-maze. The elevated plus-maze was elevated ˜85 cm above the floor and consisted of two open and two closed arms of the same size (50×10 cm). The closed arms were surrounded by walls 40 cm high, and the arms were constructed of black acrylic slabs that radiated from a central platform (10×10 cm) to form a plus sign. Each rat was placed in the central platform facing one of the open arms, and its behavior was recorded during a 5-min testing period with video capture software. More time spent in the open arms is an indication of reduced anxiety-like state. Rats were tested at 18 months old (N=11-13 per group).
The dose-response characteristics of 10-Hydroxy-2-decenoic acid's (QBA's) in combination with DHA for potential brain health benefits during aging were assessed for mood in 19-20 month-old male rats (N=11-14 per group). Rats were fed QBA alone or QBA+DHA and subjected to an elevated plus-maze.

[4] = tested on: older male rats; test: Learning acquisition, Barnes maze task; format: in vivo, rat; details: for Escape Latency: average of two trial runs
Protocol: The dose-response characteristics of 10-Hydroxy-2-decenoic acid's (QBA's) potential brain health benefits during aging were assessed for cognitive performance in older male rats (16-17 months old; N=10-12 per group). Rats were fed QBA for 4-5 months prior to behavioral assessment. Spatial learning and memory performance was tested using the Barnes circular maze which consists of a 4-ft diameter, gray circular platform raised 90 cm above the floor level with 20 holes, 10 cm in diameter, evenly spaced around the circumference. Animals were trained to locate a black escape tunnel beneath one of the holes in response to aversive light stimuli. The latency to enter the escape box in each of two trials across four trial days was recorded. Shorter latencies across and within trial days is an indication of better cognitive performance.

[5] = Weight after Barnes maze psychological stress (Example 9); format: in vivo, rat
Protocol: Aged male rats were fed 10-Hydroxy-2-decenoic acid (QBA) for approximately […] from 12-months to 20-months of age and the weight of rats was recorded (N=11-14 per group). During the last month of QBA feeding animals were subjected to the psychological stress of the Barnes maze.

[6] = Weight management in mice, colitis-related disease state (cell transfer insult); format: in vivo, mouse; details: for % Original Wt: Diseased + QBA 60 mg/kg body weight/day
Protocol: Mice (45 days of age) were fed 60 mg/kg body weight/day QBA (equivalent to 24 mg/kg/d in rats; HED of ˜240 mg/day, N=10) or a control diet (N=15) for 28 days. […] After 28 days, all 10 of the mice fed QBA and 10 of the 15 control mice were subjected to a cell transfer insult wherein the mice were considered to be in a colitis-related disease state. The undiseased controls (N=5) and the diseased controls (N=10) continued on their control diets, and the diseased QBA-fed animals continued on their QBA diets (60 mg/kg body weight/day QBA), for an additional 49 days.

[7] = Townsend et al. 1960; Izuta et al. 2009; cited from earlier work

O=C(O)C=CCCCCCCCO [QBA, 10-Hydroxy-2-decenoic acid]
Cell Death (% Control) ([1]; QBA 0.10 μM pre-treatment 48 h): 86.26 % Control
Cell Death (% Control) ([1]; QBA 0.30 μM pre-treatment 48 h): 83.62 % Control
Cell Death (% Control) ([1]; QBA 1.00 μM pre-treatment 48 h): 83.00 % Control
Cell Death (% Control) ([1]; QBA 3.00 μM pre-treatment 48 h): 82.20 % Control
Cell Death (% Control) ([1]; QBA 10.00 μM pre-treatment 48 h): 85.13 % Control
Cell Death (% Control) ([1]; QBA 30.00 μM pre-treatment 48 h): 82.29 % Control
Cell Death (% Control) ([1]; QBA 100.00 μM pre-treatment 48 h): 86.39 % Control
cell death after low oxygen exposure ([1]; summary of Table 4): decreased cell death
Center Entries (#) ([2]; QBA 0.4 mg/kg/day): 1.82 #
Center Entries (#) ([2]; QBA 4 mg/kg/day): 2.50 #
Center Entries (#) ([2]; QBA 12 mg/kg/day): 1.82 #
anxiety as measured by the number of center entries in the open field arena ([2]; QBA 24 mg/kg/d, 15-18-month old male rats): decreased anxiety
Center Entries (#) ([2]; QBA 24 mg/kg/day): 3.75 #
Time (s) in Open Arm ([3]; QBA 12 mg/kg/day): 31.7 s
Time (s) in Open Arm ([3]; QBA 24 mg/kg/day): 31.7 s
Escape Latency ([4]; QBA 0.4 mg/kg/day, trial day 1): 98.8 s
Escape Latency ([4]; QBA 0.4 mg/kg/day, trial day 2): 63.4 s
Escape Latency ([4]; QBA 0.4 mg/kg/day, trial day 3): 63.4 s
Escape Latency ([4]; QBA 0.4 mg/kg/day, trial day 4): 24.7 s
Escape Latency ([4]; QBA 4 mg/kg/day, trial day 1): 106.7 s
Escape Latency ([4]; QBA 4 mg/kg/day, trial day 2): 43.4 s
Escape Latency ([4]; QBA 4 mg/kg/day, trial day 3): 43.4 s
Escape Latency ([4]; QBA 4 mg/kg/day, trial day 4): 23.6 s
Escape Latency ([4]; QBA 12 mg/kg/day, trial day 1): 79.3 s
Escape Latency ([4]; QBA 12 mg/kg/day, trial day 2): 30.7 s
Escape Latency ([4]; QBA 12 mg/kg/day, trial day 3): 30.7 s
Escape Latency ([4]; QBA 12 mg/kg/day, trial day 4): 24.3 s
Escape Latency ([4]; QBA 24 mg/kg/day, trial day 1): 109.8 s
Escape Latency ([4]; QBA 24 mg/kg/day, trial day 2): 48.4 s
Escape Latency ([4]; QBA 24 mg/kg/day, trial day 3): 48.4 s
Escape Latency ([4]; QBA 24 mg/kg/day, trial day 4): 34.3 s
speed of learning acquisition (Barnes maze task) ([4]; male rats aged 16-17 months): increased the speed of learning acquisition
% Change (Weight after Barnes maze) ([5]; QBA 12 mg/kg/day, behavior stress day 7): −0.15%
% Change (Weight after Barnes maze) ([5]; QBA 12 mg/kg/day, behavior stress day 14): −0.20%
% Change (Weight after Barnes maze) ([5]; QBA 12 mg/kg/day, behavior stress day 21): 0.56%
% Change (Weight after Barnes maze) ([5]; QBA 12 mg/kg/day, behavior stress day 28): 0.63%
% Change (Weight after Barnes maze) ([5]; QBA 12 mg/kg/day, behavior stress day 35): 0.87%
% Change (Weight after Barnes maze) ([5]; QBA 24 mg/kg/day, behavior stress day 7): −0.15%
% Change (Weight after Barnes maze) ([5]; QBA 24 mg/kg/day, behavior stress day 14): 0.02%
% Change (Weight after Barnes maze) ([5]; QBA 24 mg/kg/day, behavior stress day 21): 0.54%
% Change (Weight after Barnes maze) ([5]; QBA 24 mg/kg/day, behavior stress day 28): 0.74%
% Change (Weight after Barnes maze) ([5]; QBA 24 mg/kg/day, behavior stress day 35): 1.32%
weight change versus control, repeated measures ANOVA ([5]; all doses versus 0 mg/kg/day QBA or 0 mg/kg/day QBA+0.07% DHA): small but significant increase
weight loss associated with the psychological stress ([5]; summary of Table 15): mitigated weight loss
% Original Wt ([6]; day 0): 0.00%
% Original Wt ([6]; day 3): 1.93%
% Original Wt ([6]; day 7): 5.33%
% Original Wt ([6]; day 10): 9.91%
% Original Wt ([6]; day 14): 9.09%
% Original Wt ([6]; day 17): 9.10%
% Original Wt ([6]; day 21): 12.60%
% Original Wt ([6]; day 24): 15.47%
% Original Wt ([6]; day 28* (cell transfer insult after 28 days)): 16.19%
% Original Wt ([6]; day 31): 18.82%
% Original Wt ([6]; day 35): 20.65%
% Original Wt ([6]; day 38): 19.66%
% Original Wt ([6]; day 42): 21.27%
% Original Wt ([6]; day 45): 22.86%
% Original Wt ([6]; day 49): 24.04%
% Original Wt ([6]; day 52): 24.05%
% Original Wt ([6]; day 56): 22.29%
% Original Wt ([6]; day 59): 21.83%
% Original Wt ([6]; day 63): 23.89%
% Original Wt ([6]; day 66): 22.42%
% Original Wt ([6]; day 70): 22.95%
% Original Wt ([6]; day 73): 21.96%
% Original Wt ([6]; day 77): 20.56%
weight of mice in a diseased state versus undiseased controls ([6]; QBA 60 mg/kg body weight/day, colitis-related disease state): maintained their weight similar to the undiseased control mice
percentage increase in body weight versus control diet ([6]; QBA 60 mg/kg body weight/day, first 28 days, before insult): greater percentage increase in body weight
in vitro antitumor activity [7]: antitumor activity
